Test results: ChEMBL document CHEMBL4229327, “Chemical Approaches to Modulating Complement-Mediated Diseases” (J Med Chem, 2018)
Peptide text beside a SMILES is read from it.

Columns and labels:
[1] = biological target: T1, C3a anaphylatoxin chemotactic receptor (Homo sapiens, UniProt Q16581); experiment: Antagonist activity at C3aR in HMDM assessed as inhibition of agonist-induced Ca2+ release; assay type: functional
T1 sequence (Q16581 whole entry): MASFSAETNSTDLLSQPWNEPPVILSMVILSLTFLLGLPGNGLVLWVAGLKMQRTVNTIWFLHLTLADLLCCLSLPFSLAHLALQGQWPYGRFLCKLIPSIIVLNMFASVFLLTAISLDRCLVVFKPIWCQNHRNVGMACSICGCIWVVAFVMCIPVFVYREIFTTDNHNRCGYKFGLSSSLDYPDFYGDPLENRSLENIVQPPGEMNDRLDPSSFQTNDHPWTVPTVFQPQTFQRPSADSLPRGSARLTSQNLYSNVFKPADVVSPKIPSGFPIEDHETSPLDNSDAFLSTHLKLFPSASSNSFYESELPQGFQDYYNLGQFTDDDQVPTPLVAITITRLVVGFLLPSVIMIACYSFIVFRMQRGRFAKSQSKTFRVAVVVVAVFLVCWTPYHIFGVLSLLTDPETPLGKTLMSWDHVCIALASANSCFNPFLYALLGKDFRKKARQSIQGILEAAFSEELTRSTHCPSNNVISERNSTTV

Complement factor B = Complement factor B (Homo sapiens, UniProt P00751); experiment: Displacement of Cy5 from recombinant human biotin-labeled factor B expressed in drosophila cells after 2 hrs by TR-FRET assay; assay type: cell-based
Sequence of Complement factor B (P00751 whole entry): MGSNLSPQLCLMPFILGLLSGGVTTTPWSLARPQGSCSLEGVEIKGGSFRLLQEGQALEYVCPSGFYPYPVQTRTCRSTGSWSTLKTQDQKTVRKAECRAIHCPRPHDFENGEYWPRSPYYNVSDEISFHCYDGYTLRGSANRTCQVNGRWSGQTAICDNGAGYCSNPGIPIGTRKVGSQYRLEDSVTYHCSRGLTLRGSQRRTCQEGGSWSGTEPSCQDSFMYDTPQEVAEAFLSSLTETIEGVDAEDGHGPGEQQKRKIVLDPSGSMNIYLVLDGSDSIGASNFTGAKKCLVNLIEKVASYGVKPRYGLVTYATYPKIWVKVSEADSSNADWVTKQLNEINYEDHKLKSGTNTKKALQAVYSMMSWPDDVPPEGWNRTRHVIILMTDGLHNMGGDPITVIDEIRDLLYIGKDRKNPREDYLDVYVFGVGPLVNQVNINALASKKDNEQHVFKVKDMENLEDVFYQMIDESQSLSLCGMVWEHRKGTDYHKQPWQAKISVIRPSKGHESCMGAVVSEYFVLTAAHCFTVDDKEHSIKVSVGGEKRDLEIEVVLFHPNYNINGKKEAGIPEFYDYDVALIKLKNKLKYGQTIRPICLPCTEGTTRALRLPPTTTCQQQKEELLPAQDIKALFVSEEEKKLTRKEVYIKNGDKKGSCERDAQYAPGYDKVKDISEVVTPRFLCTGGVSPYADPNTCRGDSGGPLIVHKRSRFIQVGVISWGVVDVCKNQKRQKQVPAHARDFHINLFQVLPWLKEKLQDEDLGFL

[2] = biological target: T2, Mannan-binding lectin serine protease 2 (Homo sapiens, UniProt O00187); experiment: Inhibition of MASP-2-mediated C4 deposition in human serum after 1 hr by ELISA
T2 sequence (O00187 16-444 limits assumed): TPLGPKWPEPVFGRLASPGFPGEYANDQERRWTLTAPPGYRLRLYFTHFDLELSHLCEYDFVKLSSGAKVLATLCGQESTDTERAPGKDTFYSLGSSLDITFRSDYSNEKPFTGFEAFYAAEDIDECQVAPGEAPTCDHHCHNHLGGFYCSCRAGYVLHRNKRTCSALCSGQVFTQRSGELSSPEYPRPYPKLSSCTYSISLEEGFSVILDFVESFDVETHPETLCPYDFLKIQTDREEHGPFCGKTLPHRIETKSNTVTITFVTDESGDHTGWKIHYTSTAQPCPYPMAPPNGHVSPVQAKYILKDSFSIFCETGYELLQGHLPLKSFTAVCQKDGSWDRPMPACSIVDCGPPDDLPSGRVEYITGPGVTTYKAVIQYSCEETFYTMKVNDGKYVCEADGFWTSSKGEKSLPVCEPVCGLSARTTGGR
T2 sequence (O00187 445-686 limits assumed): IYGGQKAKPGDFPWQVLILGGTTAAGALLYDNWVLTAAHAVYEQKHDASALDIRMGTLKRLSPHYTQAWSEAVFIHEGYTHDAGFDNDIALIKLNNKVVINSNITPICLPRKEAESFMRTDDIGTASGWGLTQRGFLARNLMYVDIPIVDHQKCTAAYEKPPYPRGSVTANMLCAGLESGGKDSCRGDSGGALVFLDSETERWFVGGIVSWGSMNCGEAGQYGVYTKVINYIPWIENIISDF

[3] = biological target: T3, Mannan-binding lectin serine protease 1 (Homo sapiens, UniProt P48740); experiment: Inhibition of MASP-1-mediated C3 deposition in human serum after 30 mins by ELISA
T3 sequence (P48740 whole entry): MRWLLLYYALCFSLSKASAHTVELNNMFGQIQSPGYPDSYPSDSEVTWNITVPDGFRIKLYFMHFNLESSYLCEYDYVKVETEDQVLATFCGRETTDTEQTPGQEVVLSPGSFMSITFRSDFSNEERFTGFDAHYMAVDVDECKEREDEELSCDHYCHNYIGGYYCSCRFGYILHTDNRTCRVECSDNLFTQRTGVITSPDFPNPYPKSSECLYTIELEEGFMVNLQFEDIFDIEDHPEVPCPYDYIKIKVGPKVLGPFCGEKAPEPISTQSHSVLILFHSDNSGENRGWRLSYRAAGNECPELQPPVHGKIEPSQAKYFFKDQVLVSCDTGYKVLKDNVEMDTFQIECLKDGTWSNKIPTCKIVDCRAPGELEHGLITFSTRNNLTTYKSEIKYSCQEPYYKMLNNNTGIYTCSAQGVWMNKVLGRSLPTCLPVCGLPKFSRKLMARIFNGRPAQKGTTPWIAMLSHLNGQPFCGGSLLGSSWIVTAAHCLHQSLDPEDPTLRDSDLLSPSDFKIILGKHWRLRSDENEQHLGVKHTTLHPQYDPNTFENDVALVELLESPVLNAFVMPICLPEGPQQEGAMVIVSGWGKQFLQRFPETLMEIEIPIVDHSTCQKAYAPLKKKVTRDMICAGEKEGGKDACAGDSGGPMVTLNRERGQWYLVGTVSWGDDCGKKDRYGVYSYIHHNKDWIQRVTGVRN

[4] = biological target: T2, Mannan-binding lectin serine protease 2; experiment: Inhibition of MASP-2 (unknown origin) using Z-L-LysSBzl hydrochloride as substrate preincubated for 1 hr followed by substrate addition
Complement factor D [5] = biological target: T4, Complement factor D (Homo sapiens, UniProt P00746)
T4 sequence (P00746 whole entry): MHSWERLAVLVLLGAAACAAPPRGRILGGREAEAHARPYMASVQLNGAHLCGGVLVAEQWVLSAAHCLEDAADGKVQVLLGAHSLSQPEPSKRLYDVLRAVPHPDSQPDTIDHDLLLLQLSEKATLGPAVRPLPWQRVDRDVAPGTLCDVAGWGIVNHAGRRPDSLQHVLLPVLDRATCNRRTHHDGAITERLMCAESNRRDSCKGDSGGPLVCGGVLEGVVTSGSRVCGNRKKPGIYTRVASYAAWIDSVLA
Description: Inhibition of factor D in human serum assessed as decrease in C3 deposition on PNH erythrocytes

[6] = biological target: T1, C3a anaphylatoxin chemotactic receptor; experiment: Agonist activity at C3aR in HMDM assessed as induction of Ca2+ release; assay type: functional
[7] = biological target: T1, C3a anaphylatoxin chemotactic receptor; experiment: Displacement of 125I-C3a from recombinant human C3aR expressed in HEK293 cell membranes after 3 hrs by scintillation proximity assay
Integrin alpha-M/beta-2 [8] = biological target: T5, Integrin alpha-M/beta-2 (Homo sapiens, UniProt P05107+P11215); experiment: Inhibition of C3bi-AP binding to CR3 derived from human PMN; assay type: protein-complex assay
T5 sequence (P05107 23-769 limits assumed, other chains not shown): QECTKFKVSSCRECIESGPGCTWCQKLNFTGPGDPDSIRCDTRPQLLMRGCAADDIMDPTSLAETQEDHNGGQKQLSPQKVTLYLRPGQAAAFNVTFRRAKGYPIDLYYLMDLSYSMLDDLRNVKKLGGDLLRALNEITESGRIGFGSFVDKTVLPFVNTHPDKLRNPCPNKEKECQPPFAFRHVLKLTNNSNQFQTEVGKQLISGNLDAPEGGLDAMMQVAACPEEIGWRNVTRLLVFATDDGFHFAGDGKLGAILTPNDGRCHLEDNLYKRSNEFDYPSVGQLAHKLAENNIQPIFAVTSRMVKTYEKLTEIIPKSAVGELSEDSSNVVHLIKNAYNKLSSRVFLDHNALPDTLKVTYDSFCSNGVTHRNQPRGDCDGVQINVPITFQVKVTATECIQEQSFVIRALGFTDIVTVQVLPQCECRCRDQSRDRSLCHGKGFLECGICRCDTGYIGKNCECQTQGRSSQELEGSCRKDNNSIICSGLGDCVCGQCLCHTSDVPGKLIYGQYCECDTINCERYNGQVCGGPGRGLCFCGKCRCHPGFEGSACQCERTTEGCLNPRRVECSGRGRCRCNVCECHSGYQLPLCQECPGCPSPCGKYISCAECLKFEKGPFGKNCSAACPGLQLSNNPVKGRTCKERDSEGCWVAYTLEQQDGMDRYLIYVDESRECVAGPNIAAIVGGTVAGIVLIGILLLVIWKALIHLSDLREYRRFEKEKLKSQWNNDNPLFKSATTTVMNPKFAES

Integrin alpha-M/beta-2 [9] = biological target: T5, Integrin alpha-M/beta-2; experiment: Antagonist activity at CR3 in carboxyfluorescein diacetate succiminidyl ester-labeled human PMN assessed as inhibition of TNF/PMA-stimulated adhesion of PMN to fibrinogen preincubated for 10 mins followed by TNF/PMA addition by fluorescence assay; assay type: protein-complex assay
[10] = biological target: T1, C3a anaphylatoxin chemotactic receptor; experiment: Displacement of 125I-C3a from human C3aR expressed in RBL-2H3 cells; assay type: cell-based
[11] = biological target: T1, C3a anaphylatoxin chemotactic receptor; experiment: Antagonist activity at human C3aR expressed in RBL-2H3 cells assessed as inhibition of C3a-induced intracellular calcium mobilization; assay type: functional, cell-based
Complement C2 [12] = biological target: T6, Complement C2 (Homo sapiens, UniProt P06681); experiment: Competitive/reversible inhibition of human C2 using Ac-SHLGLAR-pNA as substrate
T6 sequence (P06681 whole entry): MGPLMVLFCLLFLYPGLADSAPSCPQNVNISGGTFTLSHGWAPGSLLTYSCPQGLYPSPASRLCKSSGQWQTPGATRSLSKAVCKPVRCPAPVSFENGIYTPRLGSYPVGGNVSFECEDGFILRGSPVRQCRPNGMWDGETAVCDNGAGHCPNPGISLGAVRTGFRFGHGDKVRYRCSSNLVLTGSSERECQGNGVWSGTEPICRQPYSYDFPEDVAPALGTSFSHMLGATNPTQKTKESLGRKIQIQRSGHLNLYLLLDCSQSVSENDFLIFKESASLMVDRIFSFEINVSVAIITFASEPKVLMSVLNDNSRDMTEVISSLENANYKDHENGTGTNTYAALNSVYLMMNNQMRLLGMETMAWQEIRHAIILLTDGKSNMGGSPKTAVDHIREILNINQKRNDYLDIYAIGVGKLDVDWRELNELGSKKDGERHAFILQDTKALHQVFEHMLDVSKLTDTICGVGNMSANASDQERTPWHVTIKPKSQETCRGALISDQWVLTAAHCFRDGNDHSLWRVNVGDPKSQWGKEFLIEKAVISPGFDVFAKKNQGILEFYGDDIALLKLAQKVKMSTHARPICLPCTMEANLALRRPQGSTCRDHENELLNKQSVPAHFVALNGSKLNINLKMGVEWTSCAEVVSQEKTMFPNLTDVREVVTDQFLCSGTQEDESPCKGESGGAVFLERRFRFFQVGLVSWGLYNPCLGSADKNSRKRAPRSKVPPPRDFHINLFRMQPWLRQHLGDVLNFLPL

Complement C2 [13] = biological target: T6, Complement C2; experiment: Inhibition of human C2-mediated C3 processing after 24 hrs by SDS-PAGE
Complement C2 [14] = biological target: T6, Complement C2; experiment: Inhibition of C2-mediated MAC formation in human serum by ELISA
[15] = Half life in Wistar rat at 10 mg/kg, po or 1 mg/kg, iv; assay type: ADME, organism-based; conditions: in vivo
[16] = Oral bioavailability in Wistar rat at 10 mg/kg; assay type: ADME, organism-based; conditions: in vivo
[17] = Inhibition of factor D in […]-activated cat serum assessed as decrease in human erythrocyte lysis; conditions: Felis catus
[18] = Inhibition of factor D in […]-activated dog serum assessed as decrease in human erythrocyte lysis; conditions: Canis lupus familiaris
[19] = biological target: T2, Mannan-binding lectin serine protease 2; experiment: Inhibition of MASP2 (unknown origin)-induced lectin pathway by ELISA
[20] = biological target: T2, Mannan-binding lectin serine protease 2; experiment: Inhibition of recombinant […] fragment of MASP-2 (unknown origin)
[21] = biological target: T7, C5a anaphylatoxin chemotactic receptor 1 (Homo sapiens, UniProt P21730); experiment: Antagonist activity at recombinant human C5aR1 expressed in Sf9 insect cell membranes co-expressing G-alphai2,G-beta1 and G-gamma2 assessed as inhibition of recombinant human C5a-induced [35S]GTPgammaS binding after 60 mins by liquid scintillation spectrometry; assay type: functional
T7 sequence (P21730 whole entry): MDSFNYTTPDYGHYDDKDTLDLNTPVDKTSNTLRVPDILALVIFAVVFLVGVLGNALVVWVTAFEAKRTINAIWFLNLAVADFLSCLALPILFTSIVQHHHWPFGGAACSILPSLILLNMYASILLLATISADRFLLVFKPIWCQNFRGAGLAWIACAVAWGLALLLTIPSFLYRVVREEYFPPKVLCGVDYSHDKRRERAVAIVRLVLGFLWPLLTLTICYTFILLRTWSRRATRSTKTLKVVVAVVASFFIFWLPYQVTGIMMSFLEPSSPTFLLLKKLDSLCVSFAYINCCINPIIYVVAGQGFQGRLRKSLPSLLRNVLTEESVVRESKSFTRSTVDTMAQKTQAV

Complement C3 = Complement C3 (Homo sapiens, UniProt P01024); experiment: Inhibition of C3 in human serum by ELISA
Sequence of Complement C3 (P01024 23-667 limits assumed): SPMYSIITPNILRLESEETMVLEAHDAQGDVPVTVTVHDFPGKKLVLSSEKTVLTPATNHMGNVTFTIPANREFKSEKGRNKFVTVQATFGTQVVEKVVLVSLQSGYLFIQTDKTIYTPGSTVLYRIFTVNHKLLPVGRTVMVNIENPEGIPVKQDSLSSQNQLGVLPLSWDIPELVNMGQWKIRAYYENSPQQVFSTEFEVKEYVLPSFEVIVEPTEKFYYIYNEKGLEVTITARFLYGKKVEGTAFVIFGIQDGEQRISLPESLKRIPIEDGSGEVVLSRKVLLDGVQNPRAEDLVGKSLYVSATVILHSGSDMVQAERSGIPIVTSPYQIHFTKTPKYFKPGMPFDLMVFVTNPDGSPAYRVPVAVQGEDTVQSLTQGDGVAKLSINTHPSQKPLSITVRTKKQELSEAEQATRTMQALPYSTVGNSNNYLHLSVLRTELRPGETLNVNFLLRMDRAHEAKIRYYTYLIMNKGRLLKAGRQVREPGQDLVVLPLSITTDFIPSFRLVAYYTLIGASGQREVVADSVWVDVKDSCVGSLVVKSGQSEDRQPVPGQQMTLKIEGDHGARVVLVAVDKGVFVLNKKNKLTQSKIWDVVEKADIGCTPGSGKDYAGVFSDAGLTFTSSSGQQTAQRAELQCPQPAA
Sequence of Complement C3 (P01024 672-1663 limits assumed): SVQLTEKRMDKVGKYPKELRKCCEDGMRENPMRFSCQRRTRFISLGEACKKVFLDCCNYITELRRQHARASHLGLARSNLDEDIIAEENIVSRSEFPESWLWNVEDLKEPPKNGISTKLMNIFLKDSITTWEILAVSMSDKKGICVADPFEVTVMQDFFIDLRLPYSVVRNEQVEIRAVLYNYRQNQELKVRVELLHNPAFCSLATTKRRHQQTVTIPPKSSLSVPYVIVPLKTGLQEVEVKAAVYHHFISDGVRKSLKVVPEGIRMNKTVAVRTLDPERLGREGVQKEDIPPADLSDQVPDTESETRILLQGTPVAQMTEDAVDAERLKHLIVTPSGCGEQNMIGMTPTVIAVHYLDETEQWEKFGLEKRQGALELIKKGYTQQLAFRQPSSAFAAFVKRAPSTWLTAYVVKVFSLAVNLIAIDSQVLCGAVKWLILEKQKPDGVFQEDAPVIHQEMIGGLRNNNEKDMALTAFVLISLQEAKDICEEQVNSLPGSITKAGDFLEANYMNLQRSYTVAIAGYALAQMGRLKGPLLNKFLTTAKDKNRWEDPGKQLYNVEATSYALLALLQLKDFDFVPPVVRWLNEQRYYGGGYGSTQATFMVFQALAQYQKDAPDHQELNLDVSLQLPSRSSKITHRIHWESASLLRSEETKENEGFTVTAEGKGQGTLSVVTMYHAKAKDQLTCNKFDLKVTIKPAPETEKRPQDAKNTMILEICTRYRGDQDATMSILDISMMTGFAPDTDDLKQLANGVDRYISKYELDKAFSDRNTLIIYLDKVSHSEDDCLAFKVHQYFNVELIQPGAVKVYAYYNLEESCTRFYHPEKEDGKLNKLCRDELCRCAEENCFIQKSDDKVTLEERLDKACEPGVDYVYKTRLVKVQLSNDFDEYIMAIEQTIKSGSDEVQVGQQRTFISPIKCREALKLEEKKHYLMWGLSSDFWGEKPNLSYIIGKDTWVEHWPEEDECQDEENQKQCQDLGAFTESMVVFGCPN

Complement factor D [22] = biological target: T4, Complement factor D; experiment: Displacement of Cy5 from recombinant human biotin labeled factor D expressed in Escherichia coli after 2 hrs by TR-FRET assay

N=C(N)NCCC[C@@H](C(=O)O)N1Cc2nc(C(c3ccccc3)c3ccccc3)sc2C1=O
IC50 [1]: 320 nM

COc1cc(C)c2[nH]ccc2c1C(C)(C)c1nc2cc(C#N)cnc2[nH]1
IC50 (Complement factor B): 30 nM

CC[C@H](C)[C@H](NC(=O)[C@H](CS)NC(=O)[C@@H](NC(=O)[C@@H]1CCCN1C(=O)[C@@H]1CCCN1C(=O)[C@H](Cc1ccc(O)cc1)NC(=O)[C@H](CO)NC(=O)[C@H](CCCNC(=N)N)NC(=O)[C@H](CO)NC(=O)[C@H](CS)NC(=O)[C@H](Cc1ccc(O)cc1)NC(=O)CN)C(C)C)C(=O)N1CCC[C@H]1C(=O)N[C@@H](CC(=O)O)C(=O)O (H-GYCSRSYPPVCIPD-OH)
IC50 [2]: 2700 nM | IC50 [3]: 220 nM | Ki [4]: 180 nM

CC(=O)c1nn(CC(=O)N2C[C@H](F)C[C@H]2C(=O)Nc2cccc(Br)n2)c2ccc(-c3cnc(C)nc3)cc12
IC90 (Complement factor D [5]): 89 nM

N=C(N)NCCC[C@H](Nc1nccc2[nH]c(C(c3ccccc3)c3ccccc3)nc12)C(=O)O
EC50 [6]: 15 nM

N=C(N)NCCC[C@H](NC(=O)c1cccn(Cc2ccccc2Br)c1=O)C(=O)O
IC50 [7]: 50 nM

CC[n+]1c(/C=C/C=C/N2CCCc3ccccc32)sc2ccc3ccccc3c21
IC50 (Integrin alpha-M/beta-2 [8]): 140 nM | IC50 (Integrin alpha-M/beta-2 [9]): 2500 to 10000 nM

N=C(N)NCCC[C@H](NC(=O)COCC(c1ccccc1)c1ccccc1)C(=O)O
IC50 [10]: 200 nM | IC50 [11]: 28 nM

CC(=O)N[C@@H](CCCNC(=N)N)C(=O)N[C@@H](CC(C)C)C(=O)N[C@@H](CC(C)C)C(=O)N[C@@H](CC(C)C)C(=O)N[C@@H](C)C(=O)N[C@H](C=O)CCCNC(=N)N (Ac-RLLLAR-aldehyde)
IC50 (Complement C2 [12]): 330 nM | IC50 (Complement C2 [13]): 500 to 1000 nM | IC50 (Complement C2 [14]): 7300 nM

COc1ccc2c(c1)C(C(=O)N(Cc1ccc(N(C)C)cc1)c1ccc(C(C)C)cc1)CCC2 (stereo unspecified)
half-life [15]: 1 to 3 h | bioavailability [16]: 70%

CC(=O)Oc1ccc(Cc2ccc(OC(C)=O)c(C(=O)O)c2)cc1C(=O)O
IC50 [17]: 100 nM | IC50 [18]: 100 nM

CC(C)C[C@H](NC(=O)[C@H](CCCCN)NC(=O)[C@@H](NC(=O)[C@H](CS)NC(=O)[C@@H](NC(=O)[C@H](C)NC(=O)[C@H](CO)NC(=O)[C@H](CCCCN)NC(=O)CNC(=O)[C@H](CC(=O)O)NC(=O)[C@H](CO)NC(=O)CNC(=O)[C@H](CS)NC(=O)[C@H](CCCNC(=N)N)NC(=O)[C@H](CS)NC(=O)[C@@H](NC(=O)[C@H](CC(N)=O)NC(=O)[C@H](CS)NC(=O)[C@H](CCCCN)NC(=O)[C@H](CC(=O)O)NC(=O)[C@H](CCCCN)NC(=O)[C@H](Cc1ccccc1)NC(=O)[C@@H](NC(=O)[C@@H](NC(=O)CNC(=O)[C@@H]1CCCN1C(=O)[C@H](CCC(=O)O)NC(=O)[C@H](CS)NC(=O)[C@@H](NC(=O)[C@@H](NC(=O)[C@@H](N)CCC(=O)O)C(C)C)[C@@H](C)O)[C@@H](C)O)[C@@H](C)O)[C@@H](C)O)C(C)C)[C@@H](C)O)C(=O)N[C@@H](Cc1c[nH]c2ccccc12)C(=O)N[C@@H](CS)C(=O)N[C@@H](CC(N)=O)C(=O)N[C@@H](CCC(N)=O)C(=O)O (H-EVTCEPGTTFKDKCNTCRCGSDGKSAVCTKLWCNQ-OH)
IC50 [19]: 66 nM | Ki [20]: 6 nM

CC(=O)Oc1ccc(-c2ccc(OC(C)=O)c(C(=O)O)c2)cc1C(=O)O
IC50 [17]: 100 nM | IC50 [18]: 100 nM

CCc1cccc(CC)c1-c1cc(OC(C)C)c2c(n1)CCCC2Nc1ccccc1CCO (stereo unspecified)
half-life [15]: 1 to 3 h

CCN1/C(=C/C=C/c2sc3ccccc3[n+]2CC)Sc2ccccc21
IC50 (Integrin alpha-M/beta-2 [8]): 330 nM | IC50 (Integrin alpha-M/beta-2 [9]): 2500 to 10000 nM

C[C@@H](C(=O)N(Cc1ccccc1F)C1Cc2ccccc2C1)N1CCc2ccccc2[C@@H]1c1cccc2ccccc12
Ki [21]: 15.2 nM

CC(=O)N[C@@H](Cc1ccccc1)C(=O)N[C@H]1CCCNC(=O)[C@H](CCCNC(=N)N)NC(=O)[C@H](Cc2c[nH]c3ccccc23)NC(=O)[C@@H](CC2CCCCC2)NC(=O)[C@@H]2CCCN2C1=O
half-life [15]: 20 h | bioavailability [16]: ≤ 2%

CC[C@H](C)[C@H](NC(C)=O)C(=O)N[C@H]1CSSC[C@@H](C(=O)N(C)[C@H](C(N)=O)[C@@H](C)CC)NC(=O)[C@H](CCCNC(=N)N)NC(=O)[C@H](Cc2c[nH]cn2)NC(=O)[C@H](C)NC(=O)CN(C)C(=O)[C@H](Cc2c[nH]c3ccccc23)NC(=O)[C@H](CC(=O)O)NC(=O)[C@H](CCC(N)=O)NC(=O)[C@H](Cc2cn(C)c3ccccc23)NC(=O)[C@H](C(C)C)NC1=O
IC50 (Complement C3): 62 nM

Cn1cc(-c2cc(COc3ccccc3CC(=O)O)cc(-c3cccc(CC(N)=O)c3F)c2)cn1
IC50 (Complement factor D [22]): 23 nM
